# Laboratory results taken from PubChem BioAssay AID1918993 (Molecular Pharmacology Branch, DTP, NCI, 2023).
# Test system: 233499-124-R-J3-PDC complex spheroid growth
# Experiment: Anticancer human tumor 233499-124-R-J3-PDC patient-derived colon adenocarcinoma cell line growth inhibition [AhR]
# Settings: for IC50: curve of first compound; for viability, T/C: stronger effect = lower value
# Summary of the method: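 Complex tumor spheroids co-cultured with HUVEC and human MSC stroma; AhR antagonists tested in combination with standard-of-care and investigational agents. Top concentration at or near clinical Cmax (else 10 microM), half-log dilutions; growth expressed as percent test/control.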
# [1] = second compound 0.1 µM, first compound 0.0316 µM
# [2] = second compound 0.1 µM, first compound 0.1 µM
# [3] = second compound 0.1 µM, first compound 0.316 µM
# [4] = second compound 0.1 µM, first compound 1 µM
# [5] = second compound 0.1 µM, first compound 3.16 µM
# [6] = second compound 0.1 µM, first compound 10 µM
# [7] = second compound 0.316 µM, first compound 0.0316 µM
# [8] = second compound 0.316 µM, first compound 0.1 µM
# [9] = second compound 0.316 µM, first compound 0.316 µM
# [10] = second compound 0.316 µM, first compound 1 µM
# [11] = second compound 0.316 µM, first compound 3.16 µM
# [12] = second compound 0.316 µM, first compound 10 µM
# [13] = second compound 1 µM, first compound 0.0316 µM
# [14] = second compound 1 µM, first compound 0.1 µM
# [15] = second compound 1 µM, first compound 0.316 µM
# [16] = second compound 1 µM, first compound 1 µM
# [17] = second compound 1 µM, first compound 3.16 µM
# [18] = second compound 1 µM, first compound 10 µM
# [19] = second compound 3.16 µM, first compound 0.0316 µM
# [20] = second compound 3.16 µM, first compound 0.1 µM
# [21] = second compound 3.16 µM, first compound 0.316 µM
# [22] = second compound 3.16 µM, first compound 1 µM
# [23] = second compound 3.16 µM, first compound 3.16 µM
# [24] = second compound 3.16 µM, first compound 10 µM
# [25] = second compound 10 µM, first compound 0.0316 µM
# [26] = second compound 10 µM, first compound 0.1 µM
# [27] = second compound 10 µM, first compound 0.316 µM
# [28] = second compound 10 µM, first compound 1 µM
# [29] = second compound 10 µM, first compound 3.16 µM
# [30] = second compound 10 µM, first compound 10 µM
# 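Also: spheroids exposed to agents for seven days before reading.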
structure (smiles),measurement,setting,value
CCN(c1cc(-c2ccc(CN3CCOCC3)cc2)cc(C(=O)NCc2c(C)cc(C)[nH]c2=O)c1C)C1CCOCC1 + Cc1cncc(-c2nc(NCCc3c[nH]c4ccccc34)c3ncn(C(C)C)c3n2)c1,IC50,second compound 0.1 µM,> 3 µM
same,IC50,second compound 0.316 µM,> 3 µM
same,IC50,second compound 1 µM,> 3 µM
same,IC50,second compound 3.16 µM,> 3 µM
same,IC50,second compound 10 µM,< 0.00949 µM
same,"viability, T/C","second compound 0.1 µM, first compound 0.00949 µM",99.1%
same,"viability, T/C","second compound 0.1 µM, first compound 0.03 µM",101%
same,"viability, T/C","second compound 0.1 µM, first compound 0.0949 µM",76%
same,"viability, T/C","second compound 0.1 µM, first compound 0.3 µM",82.3%
same,"viability, T/C","second compound 0.1 µM, first compound 0.949 µM",95.6%
same,"viability, T/C","second compound 0.1 µM, first compound 3 µM",90.3%
same,"viability, T/C","second compound 0.316 µM, first compound 0.00949 µM",108%
same,"viability, T/C","second compound 0.316 µM, first compound 0.03 µM",109%
same,"viability, T/C","second compound 0.316 µM, first compound 0.0949 µM",94.6%
same,"viability, T/C","second compound 0.316 µM, first compound 0.3 µM",100%
same,"viability, T/C","second compound 0.316 µM, first compound 0.949 µM",106%
same,"viability, T/C","second compound 0.316 µM, first compound 3 µM",94.6%
same,"viability, T/C","second compound 1 µM, first compound 0.00949 µM",80.3%
same,"viability, T/C","second compound 1 µM, first compound 0.03 µM",79.6%
same,"viability, T/C","second compound 1 µM, first compound 0.0949 µM",75.7%
same,"viability, T/C","second compound 1 µM, first compound 0.3 µM",78.6%
same,"viability, T/C","second compound 1 µM, first compound 0.949 µM",80.5%
same,"viability, T/C","second compound 1 µM, first compound 3 µM",84%
same,"viability, T/C","second compound 3.16 µM, first compound 0.00949 µM",76.4%
same,"viability, T/C","second compound 3.16 µM, first compound 0.03 µM",76.9%
same,"viability, T/C","second compound 3.16 µM, first compound 0.0949 µM",82.4%
same,"viability, T/C","second compound 3.16 µM, first compound 0.3 µM",89.5%
same,"viability, T/C","second compound 3.16 µM, first compound 0.949 µM",73.2%
same,"viability, T/C","second compound 3.16 µM, first compound 3 µM",76%
same,"viability, T/C","second compound 10 µM, first compound 0.00949 µM",16.1%
same,"viability, T/C","second compound 10 µM, first compound 0.03 µM",21%
same,"viability, T/C","second compound 10 µM, first compound 0.0949 µM",9.73%
same,"viability, T/C","second compound 10 µM, first compound 0.3 µM",10.7%
same,"viability, T/C","second compound 10 µM, first compound 0.949 µM",16.7%
same,"viability, T/C","second compound 10 µM, first compound 3 µM",3.73%
O=C(C=Cc1cccc(S(=O)(=O)Nc2ccccc2)c1)NO + CC(CO)NC(=O)c1cc(-c2ccc(Cl)cc2)nn(-c2cnn(C)c2)c1=O,IC50,second compound 0.1 µM,5.44 µM
same,IC50,second compound 0.316 µM,2.91 µM
same,IC50,second compound 1 µM,5.15 µM
same,IC50,second compound 3.16 µM,3.07 µM
same,IC50,second compound 10 µM,3.52 µM
same,"viability, T/C",[1],98%
same,"viability, T/C",[2],108%
same,"viability, T/C",[3],111%
same,"viability, T/C",[4],115%
same,"viability, T/C",[5],89%
same,"viability, T/C",[6],6.36%
same,"viability, T/C",[7],99.5%
same,"viability, T/C",[8],93%
same,"viability, T/C",[9],98.2%
same,"viability, T/C",[10],96.6%
same,"viability, T/C",[11],46.3%
same,"viability, T/C",[12],4.58%
same,"viability, T/C",[13],97.6%
same,"viability, T/C",[14],94.3%
same,"viability, T/C",[15],110%
same,"viability, T/C",[16],112%
same,"viability, T/C",[17],84.1%
same,"viability, T/C",[18],3.72%
same,"viability, T/C",[19],94.4%
same,"viability, T/C",[20],87.6%
same,"viability, T/C",[21],117%
same,"viability, T/C",[22],108%
same,"viability, T/C",[23],48.7%
same,"viability, T/C",[24],2.7%
same,"viability, T/C",[25],93.9%
same,"viability, T/C",[26],73.9%
same,"viability, T/C",[27],90.9%
same,"viability, T/C",[28],119%
same,"viability, T/C",[29],54.9%
same,"viability, T/C",[30],3.22%
COc1cc(Nc2ncc3c(n2)-c2ccc(Cl)cc2C(c2c(F)cccc2OC)=NC3)ccc1C(=O)O + CC(CO)NC(=O)c1cc(-c2ccc(Cl)cc2)nn(-c2cnn(C)c2)c1=O,IC50,second compound 0.1 µM,> 10 µM
same,IC50,second compound 0.316 µM,> 10 µM
same,IC50,second compound 1 µM,> 10 µM
same,IC50,second compound 3.16 µM,> 10 µM
same,IC50,second compound 10 µM,> 10 µM
same,"viability, T/C",[1],75.4%
same,"viability, T/C",[2],74.5%
same,"viability, T/C",[3],81%
same,"viability, T/C",[4],91.4%
same,"viability, T/C",[5],84.6%
same,"viability, T/C",[6],82.9%
same,"viability, T/C",[7],75.6%
same,"viability, T/C",[8],73.6%
same,"viability, T/C",[9],86.3%
same,"viability, T/C",[10],77.2%
same,"viability, T/C",[11],62.8%
same,"viability, T/C",[12],94%
same,"viability, T/C",[13],78.7%
same,"viability, T/C",[14],76.9%
same,"viability, T/C",[15],96%
same,"viability, T/C",[16],72.5%
same,"viability, T/C",[17],87.7%
same,"viability, T/C",[18],74%
same,"viability, T/C",[19],57.9%
same,"viability, T/C",[20],67.4%
same,"viability, T/C",[21],86.3%
same,"viability, T/C",[22],89.1%
same,"viability, T/C",[23],84.7%
same,"viability, T/C",[24],84.9%
same,"viability, T/C",[25],58.8%
same,"viability, T/C",[26],62.8%
same,"viability, T/C",[27],73.8%
same,"viability, T/C",[28],65.4%
same,"viability, T/C",[29],57.9%
same,"viability, T/C",[30],59.2%
COc1cc(C2c3cc4c(cc3C(OC3OC5COC(C)OC5C(O)C3O)C3COC(=O)C23)OCO4)cc(OC)c1O (stereo not given) + Cc1ccccc1N=Nc1ccc(NC(=O)c2ccnn2C)c(C)c1,IC50,second compound 0.1 µM,> 10 µM
same,IC50,second compound 0.316 µM,> 10 µM
same,IC50,second compound 1 µM,> 10 µM
same,IC50,second compound 3.16 µM,> 10 µM
same,IC50,second compound 10 µM,> 10 µM
same,"viability, T/C",[1],104%
same,"viability, T/C",[2],101%
same,"viability, T/C",[3],96%
same,"viability, T/C",[4],101%
same,"viability, T/C",[5],95.7%
same,"viability, T/C",[6],89.7%
same,"viability, T/C",[7],99.7%
same,"viability, T/C",[8],84.7%
same,"viability, T/C",[9],107%
same,"viability, T/C",[10],116%
same,"viability, T/C",[11],114%
same,"viability, T/C",[12],105%
same,"viability, T/C",[13],95.9%
same,"viability, T/C",[14],105%
same,"viability, T/C",[15],98.7%
same,"viability, T/C",[16],88.9%
same,"viability, T/C",[17],99.1%
same,"viability, T/C",[18],109%
same,"viability, T/C",[19],93.4%
same,"viability, T/C",[20],97.5%
same,"viability, T/C",[21],93.7%
same,"viability, T/C",[22],108%
same,"viability, T/C",[23],107%
same,"viability, T/C",[24],114%
same,"viability, T/C",[25],106%
same,"viability, T/C",[26],102%
same,"viability, T/C",[27],107%
same,"viability, T/C",[28],128%
same,"viability, T/C",[29],106%
same,"viability, T/C",[30],99.4%
